Measurements reported in the supplement of paper PMC4862054.

Tests used:
Conditions in all cases: incubation time: 72 h
[1] = tested on: DU-4475; assay: normalised viability (% of control), CellTiter-Blue; higher = more viable cells (about 100 = DMSO control)
How it was run: (§1)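 Breast cancer cell lines in 20 µl suspension were seeded onto 384-well plates pre-loaded with compound dissolved in 5 µl medium, then incubated 72 h. CellTiter-Blue reagent (2.5 µl) was added for 2 h at 37 °C and fluorescence read at 560/590 nm. Each plate was normalised to vehicle (100) and a positive kill control (0), with Z'-factor quality control. The value is normalised viability at one listed concentration of the series.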

[2] = tested on: Hs578T; assay: as above
How it was run: as §1

[3] = tested on: MFM-223; assay: as above
How it was run: as §1

[4] = tested on: HCC1937; assay: as above
How it was run: as §1

[5] = tested on: MDA-MB-231; assay: as above
How it was run: as §1

[6] = tested on: CAL-120; assay: as above
How it was run: as §1

[7] = tested on: CAL-85-1; assay: as above
How it was run: as §1

[8] = tested on: CAL-51; assay: as above
How it was run: as §1

[9] = tested on: MDA-MB-468; assay: as above
How it was run: as §1

[10] = tested on: HDQ-P1; assay: drug sensitivity score (DSS), CellTiter-Glo (DSS (AUC-based score)); higher = stronger drug effect (viability inhibition or cytotoxicity); extreme values may be limits of the assay
How it was run: (§2)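 Compound was dispensed into 384-well plates at 5 concentrations in 10-fold steps spanning a 10,000-fold range chosen for each compound, and 20 µl of breast cancer cell suspension was added before 72 h of incubation. CellTox Green fluorescence was read at 485/520 nm, followed by CellTiter-Glo luminescence after 10 min at room temperature. Values on each plate were normalised to 0.1 % DMSO and a positive kill control. The drug sensitivity score came from the area under the fitted dose-response curve.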

[11] = tested on: MDA-MB-453; assay: as above
How it was run: as §2

[12] = tested on: CAL-51; assay: as above
How it was run: as §2

[13] = tested on: SK-BR-3; assay: as above
How it was run: as §2

[14] = tested on: DU-4475; assay: normalised viability (% of control), CellTiter-Blue; higher = more viable cells (about 100 = DMSO control); remark: listed apart in the source
How it was run: as §1

[15] = tested on: BT-474; assay: as above
How it was run: as §1

[16] = tested on: HCC1143; assay: as above
How it was run: as §1

[17] = tested on: HDQ-P1; assay: as above
How it was run: as §1

[18] = tested on: Hs578T; assay: as above; remark: listed apart in the source
How it was run: as §1

[19] = tested on: BT-549; assay: as above
How it was run: as §1

[20] = tested on: HCC1599; assay: as above
How it was run: as §1

[21] = tested on: CAL-148; assay: as above
How it was run: as §1

[22] = tested on: MFM-223; assay: as above; remark: listed apart in the source
How it was run: as §1

[23] = tested on: MDA-MB-453; assay: as above
How it was run: as §1

[24] = tested on: MDA-MB-436; assay: as above
How it was run: as §1

[25] = tested on: HCC1937; assay: as above; remark: listed apart in the source
How it was run: as §1

[26] = tested on: MDA-MB-231; assay: as above; remark: listed apart in the source
How it was run: as §1

[27] = tested on: CAL-120; assay: as above; remark: listed apart in the source
How it was run: as §1

[28] = tested on: CAL-85-1; assay: as above; remark: listed apart in the source
How it was run: as §1

[29] = tested on: CAL-51; assay: as above; remark: listed apart in the source
How it was run: as §1

[30] = tested on: MDA-MB-468; assay: as above; remark: listed apart in the source
How it was run: as §1

[31] = tested on: SK-BR-3; assay: as above
How it was run: as §1

CN(C)C[C@@H]1CCn2cc(c3ccccc32)C2=C(C(=O)NC2=O)c2cn(c3ccccc23)CCO1 [Ruboxistaurin]
normalised viability ([1]; 10 nM): 101% | normalised viability ([2]; 100 nM): 68.9% | normalised viability ([3]; 100 nM): 105% | normalised viability ([4]; 100 nM): 85.3% | normalised viability ([5]; 100 nM): 95.8% | normalised viability ([6]; 100 nM): 126% | normalised viability ([7]; 10 nM): 117% | normalised viability ([8]; 10 nM): 91.8% | normalised viability ([9]; 100 nM): 90.1% | drug sensitivity score [10]: 4.6 | drug sensitivity score [11]: 6.05 | drug sensitivity score [12]: 6.02 | drug sensitivity score [13]: 7.58 | normalised viability ([14]; 30 nM): 92.3% | normalised viability ([15]; 1000 nM): 93.1% | normalised viability ([16]; 1000 nM): 109% | normalised viability ([17]; 30 nM): 84.3% | normalised viability ([18]; 1000 nM): 99.8% | normalised viability ([19]; 1000 nM): 87.6% | normalised viability ([20]; 1000 nM): 91.3% | normalised viability ([21]; 30 nM): 116% | normalised viability ([22]; 1000 nM): 80.8% | normalised viability ([23]; 30 nM): 99.9% | normalised viability ([24]; 1000 nM): 49.2% | normalised viability ([25]; 1000 nM): 74% | normalised viability ([26]; 1000 nM): 88.2% | normalised viability ([27]; 1000 nM): 110% | normalised viability ([28]; 30 nM): 105% | normalised viability ([29]; 30 nM): 101% | normalised viability ([30]; 1000 nM): 85.2% | normalised viability ([31]; 1000 nM): 86.6%

CN1CCN(CCOc2cc(OC3CCOCC3)c3c(Nc4c(Cl)ccc5c4OCO5)ncnc3c2)CC1 [Saracatinib]
normalised viability ([1]; 10 nM): 105% | normalised viability ([2]; 100 nM): 95.7% | normalised viability ([3]; 100 nM): 99.6% | normalised viability ([4]; 100 nM): 96.2% | normalised viability ([5]; 100 nM): 76.5% | normalised viability ([6]; 100 nM): 87.7% | normalised viability ([7]; 10 nM): 93.9% | normalised viability ([8]; 10 nM): 106% | normalised viability ([9]; 100 nM): 104% | drug sensitivity score [10]: 9.63 | drug sensitivity score [11]: 3.51 | drug sensitivity score [12]: 5.08 | drug sensitivity score [13]: 2.63 | normalised viability ([14]; 30 nM): 96.3% | normalised viability ([15]; 1000 nM): 85.2% | normalised viability ([16]; 1000 nM): 70.6% | normalised viability ([17]; 30 nM): 107% | normalised viability ([18]; 1000 nM): 93.8% | normalised viability ([19]; 1000 nM): 85.9% | normalised viability ([20]; 1000 nM): 98% | normalised viability ([21]; 30 nM): 78.7% | normalised viability ([22]; 1000 nM): 102% | normalised viability ([23]; 30 nM): 101% | normalised viability ([24]; 1000 nM): 117% | normalised viability ([25]; 1000 nM): 85% | normalised viability ([26]; 1000 nM): 61.6% | normalised viability ([27]; 1000 nM): 71.9% | normalised viability ([28]; 30 nM): 82.6% | normalised viability ([29]; 30 nM): 103% | normalised viability ([30]; 1000 nM): 87.2% | normalised viability ([31]; 1000 nM): 90%

Cn1cncc1[C@@](N)(c1ccc(Cl)cc1)c1ccc2c(c1)c(-c1cccc(Cl)c1)cc(=O)n2C [Tipifarnib]
normalised viability ([1]; 10 nM): 92.8% | normalised viability ([2]; 100 nM): 70.1% | normalised viability ([3]; 100 nM): 70.3% | normalised viability ([4]; 100 nM): 64.9% | normalised viability ([5]; 100 nM): 71.8% | normalised viability ([6]; 100 nM): 57% | normalised viability ([7]; 10 nM): 85.3% | normalised viability ([8]; 10 nM): 99.9% | normalised viability ([9]; 100 nM): 96.7% | drug sensitivity score [10]: 7.3 | drug sensitivity score [11]: 10.3 | drug sensitivity score [12]: 11.4 | drug sensitivity score [13]: 11.9 | normalised viability ([14]; 30 nM): 69.3% | normalised viability ([15]; 1000 nM): 84.4% | normalised viability ([16]; 1000 nM): 59.1% | normalised viability ([17]; 30 nM): 68% | normalised viability ([18]; 1000 nM): 69.2% | normalised viability ([19]; 1000 nM): 75.8% | normalised viability ([20]; 1000 nM): 62.2% | normalised viability ([21]; 30 nM): 74.1% | normalised viability ([22]; 1000 nM): 67.7% | normalised viability ([23]; 30 nM): 82.2% | normalised viability ([24]; 1000 nM): 82.9% | normalised viability ([25]; 1000 nM): 43.6% | normalised viability ([26]; 1000 nM): 61.4% | normalised viability ([27]; 1000 nM): 47.4% | normalised viability ([28]; 30 nM): 70.1% | normalised viability ([29]; 30 nM): 95.5% | normalised viability ([30]; 1000 nM): 95.5% | normalised viability ([31]; 1000 nM): 66.1%

O=C1NC(=O)[C@@H](c2cn3c4c(cccc24)CCC3)[C@@H]1c1c[nH]c2ccccc12 [Tivantinib]
normalised viability ([1]; 1 nM): 97.8% | normalised viability ([2]; 10 nM): 86.5% | normalised viability ([3]; 10 nM): 105% | normalised viability ([4]; 10 nM): 101% | normalised viability ([5]; 10 nM): 116% | normalised viability ([6]; 10 nM): 90.8% | normalised viability ([7]; 1 nM): 105% | normalised viability ([8]; 1 nM): 106% | normalised viability ([9]; 10 nM): 104% | drug sensitivity score [10]: 0 | drug sensitivity score [11]: 4.48 | drug sensitivity score [12]: 1.38 | drug sensitivity score [13]: 4.51 | normalised viability ([14]; 3 nM): 89.2% | normalised viability ([15]; 100 nM): 106% | normalised viability ([16]; 100 nM): 93% | normalised viability ([17]; 3 nM): 120% | normalised viability ([18]; 100 nM): 114% | normalised viability ([19]; 100 nM): 96.5% | normalised viability ([20]; 100 nM): 95.7% | normalised viability ([21]; 3 nM): 93% | normalised viability ([22]; 100 nM): 87.2% | normalised viability ([23]; 3 nM): 108% | normalised viability ([24]; 100 nM): 56.6% | normalised viability ([25]; 100 nM): 64.6% | normalised viability ([26]; 100 nM): 105% | normalised viability ([27]; 100 nM): 79.8% | normalised viability ([28]; 3 nM): 95.7% | normalised viability ([29]; 3 nM): 104% | normalised viability ([30]; 100 nM): 103% | normalised viability ([31]; 100 nM): 99.9%
